{
  "source": "patent US8519061B2",
  "about": "“Controlled release remediation system and composition” (North Carolina A&T State University, priority 2008, dated 2013)",
  "test_system": "E. coli",
  "experiment": "E. coli colony counts, Membrane Filter Count Method, Country Park Lake water",
  "assay_type": "cell-based, Escherichia coli",
  "protocol": "These pellets were used to evaluate the removal of Escherichia coli (commonly E. coli) from publicly accessible water. […] Recreational use of the publicly accessible water in this area is restricted due to high E. coli concentrations that can lead to illness.\nWater samples including control water samples and publicly accessible water samples (from Country Park Lake) at concentrations of 1 ml, 0.1 ml, 0.01 ml, and 0.001 ml were prepared for evaluation.\nThe water samples were filtered through 5 μm filters and bacteria was cultured in petri dishes with m-Endo broth (e.g., commercially available form BD Diagnostic Systems Sparks, Md.) for 24-hours at 35° C. If E. coli was present in the filtered water sample, metallic purple/red E. coli colonies would grow on the filter in the petri dish. For this analysis, the larger the water sample filtered, the higher the concentration of E. coli which would grow within the 24-hour window. To analyze the amount of E. coli on the filter, the goal was to determine the appropriate water dilution amount to obtain filters where the number of colonies could be counted. If the filter was covered with E. coli, the petri dish was classified as “To numerous to count”. When an acceptable number of countable colonies was obtained, the number of colonies/100 ml was calculated for the water sample.",
  "data": [
    {"smiles": "O=S(=O)([O-])OO.[K+]", "note": "[Oxone ® compound, potassium hydrogen peroxymonosulfate sulfate (5:3:2:2)]", "values": [
      {"measurement": "E. coli Colony Counts, 0.1 ml dilution plates", "result": "No colonies"},
      {"measurement": "E. coli Colony Counts, 1 ml dilution plates", "result": "No colonies"},
      {"measurement": "E. coli Colony Counts, Average 24 hours # colonies/100 ml", "result": "No colonies"},
      {"measurement": "Removal of E. coli from treated water", "result": "complete removal"}
    ]}
  ]
}
